Data: patent US20210045385A1, “PYRIDAZINONE-SUBSTITUTED KETOXIMES AS HERBICIDES” (FMC Corporation, priority 2018, published 2021)

Tests used:
Format in all cases: in vivo
[1] = system: galium (catchweed bedstraw, Galium aparine); test: Test A postemergence, visual plant response rating; conditions: for Galium plant response rating (0 to 100 scale): 500 g ai/ha, postemergence, 0 is no effect, 100 is complete control; for Galium plant response rating: Postemergence, 125 g ai/ha, 0 to 100 scale (0 no effect, 100 complete control)
Procedure, shortened: (§1)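 Ratings 0–100 (100 = complete control), visual, vs untreated controls at ~10 days. Application pre- or postemergence; solvent mixture with surfactant; loam/sand medium.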

[2] = system: foxtail, giant (giant foxtail, Setaria faberii); test: Test A postemergence, visual plant response rating; conditions: for Foxtail, Giant plant response rating (0 to 100 scale): 500 g ai/ha, postemergence, 0 is no effect, 100 is complete control; for Foxtail, Giant plant response rating: Postemergence, 125 g ai/ha, 0 to 100 scale (0 no effect, 100 complete control)
Procedure, shortened: as §1

[3] = system: pigweed (Amaranthus retroflexus); test: Test A postemergence, visual plant response rating; conditions: for Pigweed plant response rating (0 to 100 scale): 500 g ai/ha, postemergence, 0 is no effect, 100 is complete control; for Pigweed plant response rating: Postemergence, 125 g ai/ha, 0 to 100 scale (0 no effect, 100 complete control)
Procedure, shortened: as §1

corn (Zea mays) = test: Test A postemergence, visual plant response rating; conditions: for Corn plant response rating (0 to 100 scale): 500 g ai/ha, postemergence, 0 is no effect, 100 is complete control; for Corn plant response rating: Postemergence, 125 g ai/ha, 0 to 100 scale (0 no effect, 100 complete control)
Procedure, shortened: as §1

[4] = system: Italian ryegrass (Lolium multiflorum); test: Test A postemergence, visual plant response rating; conditions: for Ryegrass, Italian plant response rating (0 to 100 scale): 500 g ai/ha, postemergence, 0 is no effect, 100 is complete control; for Ryegrass, Italian plant response rating: Postemergence, 125 g ai/ha, 0 to 100 scale (0 no effect, 100 complete control)
Procedure, shortened: as §1

[5] = system: wheat (Triticum aestivum); test: Test A postemergence, visual plant response rating; conditions: for Wheat plant response rating (0 to 100 scale): 500 g ai/ha, postemergence, 0 is no effect, 100 is complete control; for Wheat plant response rating: Postemergence, 125 g ai/ha, 0 to 100 scale (0 no effect, 100 complete control)
Procedure, shortened: as §1

kochia (Kochia scoparia) [6] = test: Test A postemergence, visual plant response rating; conditions: for Kochia plant response rating (0 to 100 scale): 500 g ai/ha, postemergence, 0 is no effect, 100 is complete control; for Kochia plant response rating: Postemergence, 125 g ai/ha, 0 to 100 scale (0 no effect, 100 complete control)
Procedure, shortened: as §1

[7] = system: blackgrass (Alopecurus myosuroides); test: Test A postemergence, visual plant response rating; conditions: for Blackgrass plant response rating (0 to 100 scale): 500 g ai/ha, postemergence, 0 is no effect, 100 is complete control; for Blackgrass plant response rating: Postemergence, 125 g ai/ha, 0 to 100 scale (0 no effect, 100 complete control)
Procedure, shortened: as §1

[8] = system: barnyardgrass (Echinochloa crus-galli); test: Test A postemergence, visual plant response rating; conditions: for Barnyardgrass plant response rating (0 to 100 scale): 500 g ai/ha, postemergence, 0 is no effect, 100 is complete control; for Barnyardgrass plant response rating: Postemergence, 125 g ai/ha, 0 to 100 scale (0 no effect, 100 complete control)
Procedure, shortened: as §1

[9] = system: ragweed (common ragweed, Ambrosia elatior); test: Test A postemergence, visual plant response rating; conditions: for Ragweed plant response rating (0 to 100 scale): 500 g ai/ha, postemergence, 0 is no effect, 100 is complete control; for Ragweed plant response rating: Postemergence, 125 g ai/ha, 0 to 100 scale (0 no effect, 100 complete control)
Procedure, shortened: as §1

[10] = system: sedge, umbrella (small-flower umbrella sedge, Cyperus difformis); test: Test B flooded paddy test, visual plant response rating; conditions: 250 g ai/ha, Flood, applied to paddy water, 2-leaf stage, evaluated after 13 to 15 days
Procedure, shortened: (§2)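 Test pots are flooded 3 cm above the soil at treatment, and the test substance is introduced into this standing water. After keeping the flood level and growing plants, treated at the 2-leaf stage, for 13 to 15 days under glass, injury is assessed visually versus controls.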

[11] = system: ducksalad (Heteranhera limosa); test: as above; conditions: 250 g ai/ha, Flood, applied to paddy water, 2-leaf stage, evaluated after 13 to 15 days
Procedure, shortened: as §2

[12] = system: barnyardgrass (Echinochloa crus-galli); test: as above; conditions: 250 g ai/ha, Flood, applied to paddy water, 2-leaf stage, evaluated after 13 to 15 days
Procedure, shortened: as §2

rice (Oryza sativa) = test: as above; conditions: 250 g ai/ha, Flood, applied to paddy water, 2-leaf stage, evaluated after 13 to 15 days
Procedure, shortened: as §2

[13] = system: foxtail, giant (giant foxtail, Setaria faberii); test: Test A preemergence, visual plant response rating; conditions: for Foxtail, Giant plant response rating: 125 g ai/ha, preemergence, 0 to 100 scale, 0 no effect, 100 complete control; for Foxtail, Giant plant response rating (0 to 100 scale): 500 g ai/ha Preemergence, approx. 10 days
Procedure, shortened: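 Formulated in a non-phytotoxic solvent mixture including surfactant, each test chemical was sprayed onto the soil surface after sowing, or onto seedlings 2 to 10 cm high. Roughly 10 days later, plants were compared with untreated controls and rated for injury from 0 (no effect) to 100 (complete control).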

[14] = system: pigweed (Amaranthus retroflexus); test: Test A preemergence, visual plant response rating; conditions: for Pigweed plant response rating: 125 g ai/ha, preemergence, 0 to 100 scale, 0 no effect, 100 complete control; for Pigweed plant response rating (0 to 100 scale): 500 g ai/ha Preemergence, approx. 10 days
Procedure, shortened: as §1

[15] = system: Italian ryegrass (Lolium multiflorum); test: Test A preemergence, visual plant response rating; conditions: for Ryegrass, Italian plant response rating: 125 g ai/ha, preemergence, 0 to 100 scale, 0 no effect, 100 complete control; for Ryegrass, Italian plant response rating (0 to 100 scale): 500 g ai/ha Preemergence, approx. 10 days
Procedure, shortened: as §1

kochia (Kochia scoparia) [16] = test: Test A preemergence, visual plant response rating; conditions: for Kochia plant response rating: 125 g ai/ha, preemergence, 0 to 100 scale, 0 no effect, 100 complete control; for Kochia plant response rating (0 to 100 scale): 500 g ai/ha Preemergence, approx. 10 days
Procedure, shortened: as §1

[17] = system: barnyardgrass (Echinochloa crus-galli); test: Test A preemergence, visual plant response rating; conditions: for Barnyardgrass plant response rating: 125 g ai/ha, preemergence, 0 to 100 scale, 0 no effect, 100 complete control; for Barnyardgrass plant response rating (0 to 100 scale): 500 g ai/ha Preemergence, approx. 10 days
Procedure, shortened: as §1

[18] = system: ragweed (common ragweed, Ambrosia elatior); test: Test A preemergence, visual plant response rating; conditions: for Ragweed plant response rating: 125 g ai/ha, preemergence, 0 to 100 scale, 0 no effect, 100 complete control; for Ragweed plant response rating (0 to 100 scale): 500 g ai/ha Preemergence, approx. 10 days
Procedure, shortened: as §1

Structure (SMILES) | Galium plant response rating (0 to 100 scale) [1] | Galium plant response rating [1] | Foxtail, Giant plant response rating (0 to 100 scale) [2] | Foxtail, Giant plant response rating [2] | Pigweed plant response rating (0 to 100 scale) [3] | Pigweed plant response rating [3] | Corn plant response rating (0 to 100 scale) (corn (Zea mays)) | Corn plant response rating (corn (Zea mays)) | Ryegrass, Italian plant response rating (0 to 100 scale) [4] | Ryegrass, Italian plant response rating [4] | Wheat plant response rating (0 to 100 scale) [5] | Wheat plant response rating [5] | Kochia plant response rating (0 to 100 scale) (kochia (Kochia scoparia) [6]) | Kochia plant response rating (kochia (Kochia scoparia) [6]) | Blackgrass plant response rating (0 to 100 scale) [7] | Blackgrass plant response rating [7] | Barnyardgrass plant response rating (0 to 100 scale) [8] | Barnyardgrass plant response rating [8] | Ragweed plant response rating (0 to 100 scale) [9] | Ragweed plant response rating [9] | other results
CO/N=C(\c1cscc1C)c1c(O)c(C)nn(C)c1=O [Compound 52] | 80 | 70 | 20 | 10 | 90 | 70 | 0 | 0 | 80 | 10 | 0 | 0 | 60 | 20 | 30 | 0 | 30 | 10 | 90 | 60 | Plant response rating, Sedge, Umbrella (0 to 100 scale, 0 is no effect, 100 is complete control) [10]: 0; Plant response rating, Ducksalad (0 to 100 scale, 0 is no effect, 100 is complete control) [11]: 0; Plant response rating, Barnyardgrass (0 to 100 scale, 0 is no effect, 100 is complete control) [12]: 0; Plant response rating, Rice (0 to 100 scale, 0 is no effect, 100 is complete control) (rice (Oryza sativa)): 0; Foxtail, Giant plant response rating [13]: 0; Foxtail, Giant plant response rating (0 to 100 scale) [13]: 10; Pigweed plant response rating [14]: 60; Pigweed plant response rating (0 to 100 scale) [14]: 80; Ryegrass, Italian plant response rating [15]: 0; Ryegrass, Italian plant response rating (0 to 100 scale) [15]: 40; Kochia plant response rating (kochia (Kochia scoparia) [16]): 0; Kochia plant response rating (0 to 100 scale) (kochia (Kochia scoparia) [16]): 20; Barnyardgrass plant response rating [17]: 0; Barnyardgrass plant response rating (0 to 100 scale) [17]: 10; Ragweed plant response rating [18]: 0; Ragweed plant response rating (0 to 100 scale) [18]: 30
Cc1ccc(Cl)cc1/C(=N\O)c1c(O)c(C)nn(C)c1=O [Compound 35] | 70 | 20 | 0 | 0 | 20 | 10 | 0 | 0 | 20 | 0 | 0 | 0 | 10 | 0 | 20 | 0 | 0 | 0 | 20 | 10 | Plant response rating, Sedge, Umbrella (0 to 100 scale, 0 is no effect, 100 is complete control) [10]: 0; Plant response rating, Ducksalad (0 to 100 scale, 0 is no effect, 100 is complete control) [11]: 0; Plant response rating, Barnyardgrass (0 to 100 scale, 0 is no effect, 100 is complete control) [12]: 0; Plant response rating, Rice (0 to 100 scale, 0 is no effect, 100 is complete control) (rice (Oryza sativa)): 0; Foxtail, Giant plant response rating [13]: 0; Foxtail, Giant plant response rating (0 to 100 scale) [13]: 0; Pigweed plant response rating [14]: 0; Pigweed plant response rating (0 to 100 scale) [14]: 0; Ryegrass, Italian plant response rating [15]: 0; Ryegrass, Italian plant response rating (0 to 100 scale) [15]: 10; Kochia plant response rating (kochia (Kochia scoparia) [16]): 0; Kochia plant response rating (0 to 100 scale) (kochia (Kochia scoparia) [16]): 0; Barnyardgrass plant response rating [17]: 0; Barnyardgrass plant response rating (0 to 100 scale) [17]: 0; Ragweed plant response rating [18]: 0; Ragweed plant response rating (0 to 100 scale) [18]: 10
CO/N=C(\c1ccccc1C(C)C)c1c(O)c(C)nn(C)c1=O [Compound 94] | 70 | 60 | 70 | 40 | 80 | 50 | 20 | 10 | 80 | 30 | 40 | 0 | 60 | 20 | 80 | 20 | 30 | 20 | 70 | 50 | Plant response rating, Sedge, Umbrella (0 to 100 scale, 0 is no effect, 100 is complete control) [10]: 0; Plant response rating, Ducksalad (0 to 100 scale, 0 is no effect, 100 is complete control) [11]: 0; Plant response rating, Barnyardgrass (0 to 100 scale, 0 is no effect, 100 is complete control) [12]: 0; Plant response rating, Rice (0 to 100 scale, 0 is no effect, 100 is complete control) (rice (Oryza sativa)): 0; Foxtail, Giant plant response rating [13]: 20; Foxtail, Giant plant response rating (0 to 100 scale) [13]: 60; Pigweed plant response rating [14]: 10; Pigweed plant response rating (0 to 100 scale) [14]: 70; Ryegrass, Italian plant response rating [15]: 50; Ryegrass, Italian plant response rating (0 to 100 scale) [15]: 90; Kochia plant response rating (kochia (Kochia scoparia) [16]): 0; Kochia plant response rating (0 to 100 scale) (kochia (Kochia scoparia) [16]): 10; Barnyardgrass plant response rating [17]: 10; Barnyardgrass plant response rating (0 to 100 scale) [17]: 50; Ragweed plant response rating [18]: 10; Ragweed plant response rating (0 to 100 scale) [18]: 70
